# Results from patent US20250325670A1, “NOVEL BORON AGENT” (priority 2021, published 2025).
# Columns and labels:
# [1] = tested on: F98 malignant glioblastoma; experiment: BNCT therapeutic effect (survival time) in F98 malignant glioblastoma cell-implanted rat brain tumor model; format: in vivo; conditions: after tumor implantation; BNCT with BPA (iv) or PBC-IP (CED)
# Experimental: Three hours after administration of PBC-IP (CED), neutron irradiation was carried out to verify the therapeutic effect of neutron capture therapy (FIG. 7). The brain tumor models were divided into an untreated group, a neutron irradiation only group, a BNCT with BPA (iv) group, a BNCT with local administration of PBC-IP (CED) group, and a PBC-IP (CED) plus BPA (iv) group to carry out a treatment experiment, and the survival times after tumor implantation were compared. The therapeutic effect of intravenous BPA as a control for BNCT treatment represented a significant prolongation of survival time with a median survival time of 37 days. […] The effect was even higher in the group that received treatment with PBC-IP (CED) […] plus intravenous BPA, indicating the antitumor effect of PBC-IP on a BPA-refractory tumor site. In the C6-implanted rat brain tumor model, the tumor boron concentration by PBC-IP (CED) was about 36 ppm, which was higher than that for F98.
# In a BNCT experiment, 14 days after implantation of 10^3 F98 malignant glioblastoma cells, neutron irradiation was carried out by using KURRI. Malignant glioblastoma cell-bearing rats were randomly divided into 5 groups (groups 1 to 5) so that each group consisted of 6 to 10 rats. […] The therapeutic effect was evaluated by the survival times of all rats.
# [2] = Changes in body weight after BNCT irradiation; format: in vivo, mouse; conditions: 25 mg (10B)/kg iv, neutron irradiated
# Experimental: As described in (A), the U-87 MG tumor-bearing mice were injected with 200 μL of a PBS solution of a boron compound (PBC-IP-HSA, L-BPA: 25 mg (^10B)/kg for each) through the tail vein. The whole mouse was placed in an acrylic mouse holder and fixed to a thermoplastic plate having a thickness of 5 mm. Three hours (L-BPA) or six hours (PBC-IP-HSA) after administration, the right thigh of the mouse was irradiated with a neutron in a dose range of 4.5 to 6.1×10^12 neutrons/cm^2 in the KUR reactor. The BNCT effect was evaluated based on the changes in tumor volume in the mouse (FIG. 4B). In order to determine the tumor volume, two perpendicular diameters of the tumor were measured with slide calipers and calculated by using the spherical volume expression {4/3π×(R/2)^3}. Here, R is the average of the longest dimension and the shortest dimension (each in millimeters) of the tumor.
# In the irradiation experiment carried out in (B), changes in body weight after irradiation were measured.
# A549 cells (FRα(−)) = experiment: BNCT antitumor effect in vitro (thermal neutron irradiation, MTT survival rate); format: cell-based, human; conditions: 25 ppm 10B, 3 hours, thermal neutron dose-dependent, MTT after 96 hours
# Experimental: (A) Human brain tumor cell U87MG (FRα(+)), (B) human lung cancer cell A549 (FRα(−)). The cells were cultured for 3 hours with an agent ^10B at a concentration of 25 ppm, followed by removal of the agent and irradiated.
# Cells (A549 1000 cells/well or U-87 MG 500 cells/well) seeded in a 96 well plate were cultured together with PBC-IP and L-BPA-fructose at a concentration of 25 ppm [^10B] at 37° C. for 3 hours, and then unilaterally irradiated with thermal neutrons from one side of the plate for 12 minutes. Subsequently, the medium was replaced, the cells were cultured for 96 hours, and then an MTT assay was carried out to evaluate the survival rate of the cells (FIG. 3). The thermal neutron irradiation was carried out by using the irradiation facility of the Institute for Integrated Radiation and Nuclear Science, Kyoto University (KUR), and the cells after irradiation were cultured in the controlled area of KUR. In addition, the survival rate is calculated based on the following expression.
# [3] = tested on: A549, U87MG, C6, F98 cells; experiment: Intracellular boron accumulation in various cells (ICP-AES); format: cell-based, human, rat; conditions: 5 μg B/mL
# Experimental: F98 rat malignant glioblastoma cells were provided by Dr. Rolf Barth (Department of Pathology, The Ohio State University, Columbus, OH, US) and were cultured at 37° C. in 5% CO^2 by using Dulbecco's modified Eagle's medium (DMEM) supplemented with 10% fetal bovine serum (FBS) and 10% penicillin/streptomycin/amphotericin B. The F98 rat malignant glioblastoma cells were histologically characterized as anaplastic astrocytoma.
# First, 5×10^5 cells were placed in a 100 mm dish (Becton Dickinson, Franklin Lakes, New Jersey) and cultured at 37° C. in 5% CO2 by using the medium described above. […] After that, the medium containing the boron compound was removed, and the cells were washed twice with 4% phosphate buffered saline (PBS) and then detached with a trypsin-ethylenediaminetetraacetic acid solution. After that, a medium was added, centrifugation (200×g, 5 minutes) was carried out twice, and cells were counted and finally sedimented. After that, the cells were digested with a 1 N nitric acid solution (Wako Pure Chemical Industries, Osaka Japan) overnight, and the amount of boron taken up was measured by inductively coupled plasma-atomic emission spectroscopy (ICP-AES) using an iCAP6300 emission spectrometer (Hitachi High-Technologies, Tokyo, Japan).
structure (smiles),measurement,setting,value
N[C@@H](Cc1ccc(B(O)O)cc1)C(=O)O [BPA],median survival time,[1],37 days
same,changes in body weight after irradiation compared with the control group,[2],no significant difference
same,BNCT antitumor effect (cell survival rate),A549 cells (FRα(−)),higher BNCT antitumor effect
same,selective accumulation among the four types of cells,[3],selective accumulation in the A549 cells
